# According to patent publication US10897891B2, “Compositions and methods for prolonged cell storage” (Board of Regents, The University of Texas System, priority 2015, dated 2021):
# “Also recorded” adds a separate entry of the source.
# How the values were obtained:
# [1] = primates, for 11 weeks; cited from earlier work
# [2] = test system: platelets; assay: Platelet degranulation by anti-von Willebrand factor immunofluorescent staining (Experiment D); type: cell-based, human; details: 1.5% PEG-400, 5° C., 8 days, rotation
# Protocol: Functional, non-degranulated, platelets should retain vWF at high concentrations in their alpha granules. To study the effect of PEG on gradual loss or preservation a direct fluorescent antibody immunoflorescent staining protocol was developed. Slides were air dried for 5 min and immersed in 0.5% fresh paraformaldehyde in 10% PBS pH 7.3 for 10 min. Slides were soaked for 2 min in PBS with 5 changes. Subsequently excess PBS was drained and slides immersed for 2 min in ice cold dry acetone. Again, slides were drained and excess acetone was removed with 5 PBS washings of 2 min each. Slides were then immersed in 0.5% filter sterilized BSA in PBS and allowed to block overnight at 4° C. After draining excess block solution, 50 ul of primary antibody (Polyclonal rabbit anti-vWF-PB9062, Boster Biological Technology, Pleasanton, Calif.) at 5 ng/ml was applied immediately over the platelet spot and incubated in a humidity chamber for 4 hr at 4° C. Slides were washed with 5 changes of 0.5% BSA/PBS for 5 min each. Excess fluid was again removed and FITC labeled goatd anti-rabbit, Sigma F0382, was added 50 ug/ml in 0.5% BSA/PBS for 3 hr. […]
# von Willebrand Factor (vWF) is a major component of platelet alpha granules. […] No post photographic image adjustments were made to images analyzed.
# [3] = test system: platelets; assay: Platelet aggregation and shape after cold storage (microscopy, Experiment A); type: cell-based, human; details: 2% final PEG-400, 5° C., 26 days, rotation 70 cycles per minute
# Protocol: Photomicrographs were taken with a Nikon E400 microscope with an Insight 18.2 Color Camera and Spot 5.1 image capture software. No image adjustments were performed. Fluorescent microscopy was performed using a Leica DMIL photomicroscope and Leica LAS V3.8 image acquisition software. No post photographic image adjustments were made.
# Platelets are known to change shape and show partial aggregation when chilled. The goal of the initial experiments was to see if this behavior changed when platelets were incubated in the presence of PEG-400. Two standard random donor platelet concentrates, type O, were mixed by connecting the bags, followed by gravity mixing 8 times. This mixture was equally divided by weight into the two original platelet bags and either 10 ml of PBS or 10 ml of PEG-400 in PBS was added to the control and test unit respectively. The final concentration of PEG-400 in the unit was 2%. These units were then gently rotated at 70 cycles per minute, with a 1 inch stroke length, at 5° C., over 26 days. At the end of this time aliquots were examined and photographed. • PBS Control 2% PEG-400 in PBS
# [4] = test system: platelets; assay: Epinephrine induced platelet aggregation following cold storage (OD 690 nm, Experiment C); type: cell-based, human; details: 2% PEG-400, 5° C. for 7 days
# Protocol: Platelet aggregation using epinephrine. Ten ml of 24 hr old platelet residual was derived from one platelet unit and split into two 5 ml aliquots in 50 ml tubes. One sample received 10% phosphate buffered saline (PBS) and one 10% PBS containing PEG400 such that the final PEG concentration was 2%. These samples were placed on a flat-bed rotator with a 1 inch stroke, at 70 cycles per min, at 5° C. for 7 days. 100 ul of these platelet suspensions were added to wells of a 96 well U bottom plate. Epinephrine 0.1 mg/ml (Pharmaceutical NDC 0409-4921-34-44-048-DK) was diluted with PBS and 100 ul was added to test wells to give a finial concentration of 10 mcg/ml. The plate was rotated overnight to allow aggregation. The extent of aggregation was read using an ELISA plate reader (Molecular Devises, Vmax) at 690 nm wavelength. Platelets, with and without PEG, were also aggregated by the addition of 10% H2O2. […] Table 3 presents additional cryoprotective agents scored for the effect on microscopic degranulation (20× high contrast lighting as above).
# Fresh donor platelets were supplemented with PBS or PBS 2% PEG-400 as described in the methods, and incubated at 5° C. for 7 days. These control and test samples were then loaded side by side on a 96 well plate (ensuring that test and control reading would be made simultaneously). […]
# [5] = dogs; cited from earlier work
substance,measurement,setting,value
Polyethylene glycol [PEG-400],tolerated level,[1],0.4 % of body weight
same,vWF degranulation at 5° C.,[2],sufficient to prevent vWG degranulation; also recorded: prevented vWG degranulation
same,platelet aggregation and rod shapes vs PBS control,[3],control was observed to be more aggregated and to have more rod shapes than the PEG test platelets
same,"initial aggregation in the stored state (baseline OD 690 nm, no epinephrine)",[4],less initial aggregation in the stored state
same,aggregation response to epinephrine challenge (OD 690 nm),[4]; 0 vs 10 μg epinephrine,significant aggregation response to epinephrine
same,toxic endpoint,[5],~8 g/kg
same,toxic endpoint for the whole animal,[5],0.8%
